Data as given in the NIST ThermoML archive (doi:10.1021/acs.jced.5b00412).
Numbers after ± are expanded uncertainties.

Experiment: wn = mass fraction of the nth substance listed
Conditions: 101.3 kPa, Liquid, Vibrating tube method

NCCCO [3-amino-1-propanol] + O
mass density (293.15 K, w1 = 0.1): 998.7 ± 2.9 kg/m3 | mass density (293.15 K, w1 = 0.2): 1002.2 ± 3.1 kg/m3 | mass density (293.15 K, w1 = 0.3): 1005.9 ± 2.9 kg/m3 | mass density (293.15 K, w1 = 0.41): 1008.8 ± 2.9 kg/m3 | mass density (293.15 K, w1 = 0.51): 1011.3 ± 2.9 kg/m3 | mass density (293.15 K, w1 = 0.61): 1015.4 ± 2.8 kg/m3 | mass density (293.15 K, w1 = 0.7): 1014.9 ± 2.9 kg/m3 | mass density (293.15 K, w1 = 0.8): 1009.8 ± 3.1 kg/m3 | mass density (293.15 K, w1 = 0.91): 1001.4 ± 3.6 kg/m3 | mass density (293.15 K, w1 = 1): 987.5 ± 2.8 kg/m3 | mass density (298.15 K, w1 = 0.1): 997.3 ± 2.9 kg/m3 | mass density (298.15 K, w1 = 0.2): 1000.4 ± 2.9 kg/m3 | mass density (298.15 K, w1 = 0.3): 1003.7 ± 2.9 kg/m3 | mass density (298.15 K, w1 = 0.41): 1006 ± 2.9 kg/m3 | mass density (298.15 K, w1 = 0.51): 1008.2 ± 2.9 kg/m3 | mass density (298.15 K, w1 = 0.61): 1011.8 ± 2.8 kg/m3 | mass density (298.15 K, w1 = 0.7): 1011.2 ± 2.9 kg/m3 | mass density (298.15 K, w1 = 0.8): 1005.9 ± 3.1 kg/m3 | mass density (298.15 K, w1 = 0.91): 997.5 ± 3.6 kg/m3 | mass density (298.15 K, w1 = 1): 983.6 ± 2.8 kg/m3 | mass density (303.15 K, w1 = 0.1): 995.7 ± 2.9 kg/m3 | mass density (303.15 K, w1 = 0.2): 998.4 ± 2.9 kg/m3 | mass density (303.15 K, w1 = 0.3): 1001.3 ± 2.9 kg/m3 | mass density (303.15 K, w1 = 0.41): 1003.1 ± 2.8 kg/m3 | mass density (303.15 K, w1 = 0.51): 1005 ± 2.9 kg/m3 | mass density (303.15 K, w1 = 0.61): 1008 ± 2.8 kg/m3 | mass density (303.15 K, w1 = 0.7): 1007.3 ± 2.9 kg/m3 | mass density (303.15 K, w1 = 0.8): 1002 ± 3.1 kg/m3 | mass density (303.15 K, w1 = 0.91): 993.5 ± 3.6 kg/m3 | mass density (303.15 K, w1 = 1): 979.6 ± 2.8 kg/m3 | mass density (308.15 K, w1 = 0.1): 993.9 ± 2.9 kg/m3 | mass density (308.15 K, w1 = 0.2): 996.3 ± 2.9 kg/m3 | mass density (308.15 K, w1 = 0.3): 998.8 ± 2.8 kg/m3 | mass density (308.15 K, w1 = 0.41): 1000.1 ± 2.8 kg/m3 | mass density (308.15 K, w1 = 0.51): 1001.8 ± 2.8 kg/m3 | mass density (308.15 K, w1 = 0.61): 1003.9 ± 2.8 kg/m3 | mass density (308.15 K, w1 = 0.7): 1003.4 ± 2.9 kg/m3 | mass density (308.15 K, w1 = 0.8): 998 ± 3.1 kg/m3 | mass density (308.15 K, w1 = 0.91): 989.5 ± 3.6 kg/m3 | mass density (308.15 K, w1 = 1): 975.5 ± 2.8 kg/m3 | mass density (313.15 K, w1 = 0.1): 991.9 ± 2.9 kg/m3 | mass density (313.15 K, w1 = 0.2): 994 ± 2.9 kg/m3 | mass density (313.15 K, w1 = 0.3): 996.2 ± 2.8 kg/m3 | mass density (313.15 K, w1 = 0.41): 997.1 ± 2.8 kg/m3 | mass density (313.15 K, w1 = 0.51): 998.5 ± 2.8 kg/m3 | mass density (313.15 K, w1 = 0.61): 1001 ± 2.8 kg/m3 | mass density (313.15 K, w1 = 0.7): 999.2 ± 2.9 kg/m3 | mass density (313.15 K, w1 = 0.8): 994 ± 3.1 kg/m3 | mass density (313.15 K, w1 = 0.91): 985.5 ± 3.6 kg/m3 | mass density (313.15 K, w1 = 1): 971.5 ± 2.8 kg/m3 | mass density (318.15 K, w1 = 0.1): 989.7 ± 2.8 kg/m3 | mass density (318.15 K, w1 = 0.2): 991.6 ± 2.8 kg/m3 | mass density (318.15 K, w1 = 0.3): 993.3 ± 2.8 kg/m3 | mass density (318.15 K, w1 = 0.41): 993.9 ± 2.8 kg/m3 | mass density (318.15 K, w1 = 0.51): 995 ± 2.8 kg/m3 | mass density (318.15 K, w1 = 0.61): 997.2 ± 2.8 kg/m3 | mass density (318.15 K, w1 = 0.7): 995.6 ± 2.9 kg/m3 | mass density (318.15 K, w1 = 0.8): 990 ± 3.1 kg/m3 | mass density (318.15 K, w1 = 0.91): 981.5 ± 3.6 kg/m3 | mass density (318.15 K, w1 = 1): 967.5 ± 2.8 kg/m3 | mass density (323.15 K, w1 = 0.1): 987.3 ± 2.8 kg/m3 | mass density (323.15 K, w1 = 0.2): 989 ± 2.8 kg/m3 | mass density (323.15 K, w1 = 0.3): 990.6 ± 2.8 kg/m3 | mass density (323.15 K, w1 = 0.41): 990.6 ± 2.8 kg/m3 | mass density (323.15 K, w1 = 0.51): 991.5 ± 2.8 kg/m3 | mass density (323.15 K, w1 = 0.61): 993.3 ± 2.8 kg/m3 | mass density (323.15 K, w1 = 0.7): 991.7 ± 2.9 kg/m3 | mass density (323.15 K, w1 = 0.8): 986 ± 3.1 kg/m3 | mass density (323.15 K, w1 = 0.91): 977.5 ± 3.6 kg/m3 | mass density (323.15 K, w1 = 1): 963.4 ± 2.8 kg/m3 | mass density (328.15 K, w1 = 0.1): 984.8 ± 2.8 kg/m3 | mass density (328.15 K, w1 = 0.2): 986.3 ± 2.8 kg/m3 | mass density (328.15 K, w1 = 0.3): 987.6 ± 2.8 kg/m3 | mass density (328.15 K, w1 = 0.41): 987.9 ± 2.8 kg/m3 | mass density (328.15 K, w1 = 0.51): 988 ± 2.8 kg/m3 | mass density (328.15 K, w1 = 0.61): 989.5 ± 2.8 kg/m3 | mass density (328.15 K, w1 = 0.7): 987.8 ± 2.9 kg/m3 | mass density (328.15 K, w1 = 0.8): 981.9 ± 3.1 kg/m3 | mass density (328.15 K, w1 = 0.91): 973.4 ± 3.6 kg/m3 | mass density (328.15 K, w1 = 1): 959.3 ± 2.8 kg/m3 | mass density (333.15 K, w1 = 0.1): 983 ± 2.8 kg/m3 | mass density (333.15 K, w1 = 0.2): 983.5 ± 2.8 kg/m3 | mass density (333.15 K, w1 = 0.3): 984.5 ± 2.8 kg/m3 | mass density (333.15 K, w1 = 0.41): 984.5 ± 2.8 kg/m3 | mass density (333.15 K, w1 = 0.51): 984.4 ± 2.8 kg/m3 | mass density (333.15 K, w1 = 0.61): 985.6 ± 2.8 kg/m3 | mass density (333.15 K, w1 = 0.7): 983.9 ± 2.9 kg/m3 | mass density (333.15 K, w1 = 0.8): 977.7 ± 3.2 kg/m3 | mass density (333.15 K, w1 = 0.91): 969.3 ± 3.5 kg/m3 | mass density (333.15 K, w1 = 1): 955.8 ± 2.8 kg/m3 | mass density (338.15 K, w1 = 0.1): 980.3 ± 2.8 kg/m3 | mass density (338.15 K, w1 = 0.2): 980.5 ± 2.8 kg/m3 | mass density (338.15 K, w1 = 0.3): 981.3 ± 2.8 kg/m3 | mass density (338.15 K, w1 = 0.41): 981.9 ± 2.8 kg/m3 | mass density (338.15 K, w1 = 0.51): 980.8 ± 2.8 kg/m3 | mass density (338.15 K, w1 = 0.61): 981.6 ± 2.8 kg/m3 | mass density (338.15 K, w1 = 0.7): 979.9 ± 3 kg/m3 | mass density (338.15 K, w1 = 0.8): 973.2 ± 3.2 kg/m3 | mass density (338.15 K, w1 = 0.91): 965.2 ± 3.5 kg/m3 | mass density (338.15 K, w1 = 1): 951.7 ± 2.8 kg/m3 | mass density (343.15 K, w1 = 0.1): 977.5 ± 2.8 kg/m3 | mass density (343.15 K, w1 = 0.2): 977.5 ± 2.8 kg/m3 | mass density (343.15 K, w1 = 0.3): 978 ± 2.8 kg/m3 | mass density (343.15 K, w1 = 0.41): 978.3 ± 2.8 kg/m3 | mass density (343.15 K, w1 = 0.51): 977.5 ± 2.8 kg/m3 | mass density (343.15 K, w1 = 0.61): 977.6 ± 2.8 kg/m3 | mass density (343.15 K, w1 = 0.7): 975.8 ± 3 kg/m3 | mass density (343.15 K, w1 = 0.8): 969.1 ± 3.2 kg/m3 | mass density (343.15 K, w1 = 0.91): 961 ± 3.5 kg/m3 | mass density (343.15 K, w1 = 1): 947.6 ± 2.8 kg/m3 | mass density (348.15 K, w1 = 0.1): 974.5 ± 2.8 kg/m3 | mass density (348.15 K, w1 = 0.2): 974.3 ± 2.8 kg/m3 | mass density (348.15 K, w1 = 0.3): 974.6 ± 2.8 kg/m3 | mass density (348.15 K, w1 = 0.41): 974.7 ± 2.8 kg/m3 | mass density (348.15 K, w1 = 0.51): 972.9 ± 2.8 kg/m3 | mass density (348.15 K, w1 = 0.61): 973.6 ± 2.8 kg/m3 | mass density (348.15 K, w1 = 0.7): 971.6 ± 3 kg/m3 | mass density (348.15 K, w1 = 0.8): 965.1 ± 3.2 kg/m3 | mass density (348.15 K, w1 = 0.91): 956.9 ± 3.5 kg/m3 | mass density (348.15 K, w1 = 1): 943.5 ± 2.8 kg/m3 | mass density (353.15 K, w1 = 0.1): 971.2 ± 2.8 kg/m3 | mass density (353.15 K, w1 = 0.2): 971 ± 2.8 kg/m3 | mass density (353.15 K, w1 = 0.3): 971.1 ± 2.8 kg/m3 | mass density (353.15 K, w1 = 0.41): 971.1 ± 2.8 kg/m3 | mass density (353.15 K, w1 = 0.51): 970.8 ± 2.8 kg/m3 | mass density (353.15 K, w1 = 0.61): 969.5 ± 2.8 kg/m3 | mass density (353.15 K, w1 = 0.7): 967.4 ± 3 kg/m3 | mass density (353.15 K, w1 = 0.8): 961.2 ± 3.2 kg/m3 | mass density (353.15 K, w1 = 0.91): 952.7 ± 3.6 kg/m3 | mass density (353.15 K, w1 = 1): 939.3 ± 2.8 kg/m3
